We go through one compound from patent US5496703A, “Indirect immunoassay for dioxinlike compounds” (priority 1993, dated 1996).

What is called ED50 is the midpoint of the dose-response relation.

Entries after “also recorded” stand apart in the source; their conditions may differ.

Series [1] relates to protein tyrosylphosphorylation of hepatic S-9 proteins. Description: Immunoblot / densitometry of hepatic S-9 phosphotyrosyl proteins, mice dosed i.p. It is filed as in vivo, C57BL/6 mice. As to the method: (§1) Female, C57BL/6 mice (or any cytochrome P-450IA1 inducible strain) were obtained from Harton Sprague Dawley (Indianapolis, Ind.). Experiments were performed using four to six week old, female mice weighing approximately 16 to 20 g. Mice were fed Prolab RMH 1000 rat, mouse and hamster food (Agway, Cortland, N.Y.) and received tap water ad libitum. All mice were housed three to five per cage and maintained on a photoperiod of 12 hours. Mice were killed 24 hours following an intraperitoneal injection of either corn oil alone or TCDD (Analabs) at 0.25, 0.5, 1, 2, 4, 10, 50 μg/kg, the volume of the injections ranged from 0.1 to 0.2 ml per mouse. Hepatic S-9 fractions were prepared by homogenizing the liver in 3 times the volume of 0.15M KCl. Following a 9000×g centrifugation for 20 minutes, the supernatant (S-9) fraction was carefully removed and quickly frozen for storage at -80° C.
The separation of S-9 proteins by means of SDS PAGE was performed by mixing the S-9 1:1 with a double strength sodium dodecyl sulfate sample buffer and heating the solution at 100° C. for 3 minutes prior to one-dimensional SDS polyacrylamide gel electrophoresis with 10% polyacrylamide. After electrophoresis, a Milliblot SDS electroblot apparatus (Millipore, Bedford, Mass.) was used to transfer the proteins from the polyacrylamide gels to an Immobilon™ membrane filter (Millipore). Complete transfers were accomplished in 25-30 minutes at 500 mA and were assessed by tracking pre-stained molecular weight standards onto the membrane filter. Membrane filters were blocked by incubating in TBS (Tris buffered saline) containing 5% milk for 30 minutes at 37° C. The membranes were then washed in TBST (TBS with 0.05% Tween 20) and incubated overnight with antiphosphotyrosine monoclonal antibody (1.5 μg/mL) in TBST. The primary antibody was removed, and the membranes were washed four times in TBST. To visualize the antibody reaction, the membranes were incubated for 3 hours at 37° C. with alkaline phosphatase-conjugated antimouse IgG diluted 1:1000 in TBST, washed 3 times in TBST, and developed for 15 to 30 minutes. Determination of molecular weights of immuno-stained proteins was performed by adding molecular weight standards (Bio Rad) to reference lanes and staining the membrane filters with amido black.
The indicated densitometric measurements were made on a BioImage AK Kodak Visage 110.
An estimate of the limit of detection of dioxinlike activity can be made using the 0.25 μg/kg dose as the minimally effective dose. At this level of administration of TCDD, the 37 kDalton band becomes easily visible. Assuming a 20 g mouse, the diethyl ether extract would have to contain 5 ng of dioxin equivalents to initiate a tryosylphosphorylation of the 37 kDalton protein. […]
On the technique in general: In western blotting, separated proteins are transferred to a membrane and probed.

For a further series, the system named is cytochrome P-450IA1. As to the kind of experiment: Ethoxyresorufin O-deethylase assay (EROD), hepatic S-9, mice dosed i.p. It is filed as in vivo, C57BL/6 mice. The following applies: hepatic S-9, i.p., 24 hours after dosing. As to the method: as §1, with “Hepatic S-9 fractions were prepared by homogenizing the liver in 3 times the volume of 0.15M KCl. Following a 9000×g centrifugation for 20 minutes, the supernatant (S-9) fraction was carefully removed and quickly frozen for storage at -80° C.” left out
Resorufin (hydroxyphenoxazone) and ethoxyresorufin was purchased from Molecular Probes (Junction City, Oreg.). EROD was measured by following the increase in fluorescence due to the formation of resorufin by dealkylation of its ethoxy derivative. […] A baseline of fluorescence was recorded at an excitation wavelength of 530 nm and an emission wavelength of 585 nm. The reaction was started with the addition of NADPH and the dealkylation of the derivative to resorufin was followed by a progressive increase in fluorescence as resorufin was generated. Recordings were standardized by measuring the fluorescence of freshly generated resorufin from resorufin acetate (Sigma, St. Louis, Mo.) prior to each assay. […]

In series [2] the target is Ah receptor. The following applies: cited from earlier work.
Series [3] deals with Ah receptor. Particulars: cited from earlier work. This is another data set of the same source.
Another series deals with human receptor. The following applies: cited from earlier work.
The test system of the next series is hepatic Ah receptor. The following applies: room temperature, ligand concentration 10^-9 M; cited from earlier work.
In series [4] the test system is AHH and delta-ALA (delta-aminolaevulinic acid) synthetase. Particulars: versus other inducers, such as 3-methyl-cholanthrene; cited from earlier work.
For series [5] the following is noted: single human; cited from earlier work.
The conditions of series [6]: cited from earlier work.
The test system of the next series is C57BL/6J mouse strain. Particulars: cited from earlier work.
A further series deals with DBA/2 strain. Particulars: DBA/2 mouse; cited from earlier work.
In another series the test system is phospholipase C. The following applies: certain cell lines; cited from earlier work.

Consider `Clc1cc2c(cc1Cl)Oc1cc(Cl)c(Cl)cc1O2` [TCDD, 2,3,7,8-tetrachlorodibenzo-p-dioxin], for which the minimal effective dose in series [1] (Mus musculus, ip, 24 h, in vivo limit-of-detection estimate, read-out: minimally effective dose (37 kDalton band easily visible)) was 0.25 µg/kg. Also, the 50% effective dose (ED50) in [1] (Mus musculus, ip, densitometry of immunoblot, i.p., 24 hours after dosing, read-out: ED50, 44 kDalton protein tyrosylphosphorylation) worked out at 0.5 µg/kg. Besides, in [1] (densitometry of immunoblot, i.p., 24 hours after dosing), the “dose of maximal 44 kDalton protein tyrosylphosphorylation” value is listed as 1 μg TCDD/kg. The “tyrosylphosphorylation of the 37 kDalton protein” value in series [1] (immunoblot, i.p., 24 hours) is recorded as “resulted in the tyrosylphosphorylation of the 37 kDalton protein; also recorded: highly phosphorylated at tyrosine residues”. Also, in the series with cytochrome P-450IA1, the “ED50, cytochrome P-450IA1 expression (EROD)” value stood at 5 μg TCDD/kg and the “dose of maximal EROD activity” value is on record as 50 μg TCDD/kg. The “equilibrium dissociation constant (Kd), earlier Scatchard analysis” value at Ah receptor [2] (almost all Ah receptors studied) was “nM range”. Also, at Ah receptor [2], the “Kd, newer experimental approaches” value was “pM range” and the “binding affinity to Ah receptor” value is given as “binds most strongly”. In the series with Ah receptor [3] (DBA/2 mouse), the “hepatic level of TCDD binding Ah receptor” value is “less than 1 fmol of receptor/mg of cytosolic protein”. For the same compound, in the series on Ah receptor [3], the “binding to DBA/2 mouse receptor” value is on record as “Weaker binding”. The “binding to human receptor” value with human receptor is recorded as “Weaker binding”. Further, the “saturation half-life of binding” value in the series with hepatic Ah receptor was “less than 1 hour”. Also, the “potency in induction of AHH and delta-ALA synthetase” value in series [4] is recorded as “orders of magnitude more potent”. Moreover, the half-life in series [5] is on record as 5.8 year. Also, in series [6] (guinea pig versus hamster), the “difference in whole body half-life between guinea pig and hamster” value is 3 fold. The whole-body half-life entry in series [6] (rodents) is given as “on the order of weeks”. In addition, the “susceptibility to TCDD-induced toxicity” value in the series on C57BL/6J mouse strain is on record as “very susceptible”. For the same compound, in the series on DBA/2 strain, the “susceptibility to TCDD toxicity” value is “relatively resistant”. The “phospholipase C activation” value in the series with phospholipase C is reported as “activates protein kinase C in certain cell lines but also phospholipase C”.
